Each structure is given as a SMILES string.

This test has as its target T1, HIV-1 protease (Human immunodeficiency virus type 1 group M subtype B, UniProt P04585).
T1 construct: Purified HIV-1 protease was obtained as described below; made in house; host or cells: E. coli K12 L507/pHP10D (NRRL B-18560)
The test can be described thus: biochemical. Particulars: for IC50: read-out: Fluorescence Assay IC50 (converted). On the procedure: N^α -Biotin-[…]Ne-FITC)-OH
The purified peptide was labeled as follows with a fluorescent marker at the C-terminal end for use in the assay. N^α -Biotin-Gly-Ser-Gln-Asn-Tyr-Pro-lle-Val-Gly-Lys-OH (1.206 g, 0.936 mmoles) was dissolved in 100 mL of 0.1M sodium borate, pH 9.5 with stirring. Then, 3 g of fluorescein isothiocyanate (7.7 mmol) was dissolved in 15 mL dimethyl sulfoxide and the solution added to the reaction in 10 equal portions over the course of a two hour period. The reaction was allowed to proceed for a further one hour after the final addition had been made. The pH of the solution was adjusted to 3 with 5N HCl. A precipitate formed which was removed from the reaction by centrifugation.
Fluorescence HIV-1 Protease Inhibitor Assay Procedure.
To each well of a round bottom, 96-well plate is added 20 μl of the Enzyme Solution followed by 10 μl of the compound to be evaluated in 20% aqueous DMSO. Purified HIV-1 protease was obtained as described below. The solution is incubated for one hour at room temperature and then 20 μl of a solution of the substrate N^α -Biotin-[…]N^e -FITC)-OH, in MES-ALB buffer (1.5 μl/ml) is added to each well. The solutions are incubated for 16 hours at room temperature and thereafter to each well is added 150 μl of MES-ALB buffer.
To each well of a 96-well Pandex plate is added 25 μl of the Avidin Coated Beads Solution. Next, 25 μl of the diluted incubation solutions, described above, are added to each well of the Pandex plate. The solutions are mixed well and the plates are loaded into a Pandex® machine, washed, evacuated and read. Sample detection was performed by excitation at 485 nm and reading the resulting epifluorescence at 535 nm.
A culture of E. coli K12 L507/pHP10D was grown to mid-log phase at 32° C. in LB media containing 12.5 μg/ml tetracycline. The cultivation temperature was quickly elevated to 40° C. to induce gene expression, and the cells were allowed to grow for 2.5 hours at this temperature before the culture was quickly chilled on ice. The cells were centrifuged and the cell pellet was resuspended in 20 ml 50 mmol MES buffer (pH 6.0) containing 1 mmol EDTA, 1 mmol DTT, 1 mmol PMSF, and 10% glycerol (Buffer A). Cells were lysed by sonication using a Fischer Model 300 Dismembrator and a microtip probe. […] Enzymatic activity was measured by HPLC using the synthetic peptide SQNYPIV as described in Margolin et al., Biochem. Biophys. Res. Commun., 167, 554-560 (1990); the production of the pl peptide (SQNY) was measured.
Active fractions were pooled, made 1.2M in ammonium sulfate, and applied to a hexyl agarose column (2.0×18 cm) equilibrated in Buffer A containing 1.2M ammonium sulfate. The sample, in 125 ml (1.85 mg/ml), was loaded at a flow rate of 1 ml/min at 4° C. […] The column was then washed isocratically in Buffer A for 120 min. Active fractions were pooled, concentrated to 10 ml using an Amicon stirred cell with a YM-10 membrane, and applied at 1 ml/min to a MonoS cation exchange column (1.0×10 cm) equilibrated in Buffer A. After washing isocratically for 30 min, protease was eluted using a linear gradient of 0-0.45M NaCl in Buffer A over 40 min followed by an isocratic wash with Buffer A containing 0.45M NaCl over 30 min. Chromatography was performed at 25° C.
Pooled active fractions were concentrated to 200 ul using an Amicon stirred cell and a YM-10 membrane, and the protease was then applied to a Superose 6 size exclusion column equilibrated in Buffer A containing 0.1M NaCl. The column was washed isocratically in this buffer at a flow rate of 0.5 ml/min.

For orientation: IC50 means the concentration that gives 50% inhibition. In the case of `CCC(C)[C@H](NC(=O)OCc1ccc2ccccc2n1)C(=O)N[C@@H](Cc1ccccc1)[C@H](O)Cc1ccccc1C(=O)NC(C)(C)C` (stereo partly drawn) [Example 38, [2R-(2R*, 3S*, 6S*)]-N-t-butyl-2-(2-hydroxy-3-phenylmethyl-4-aza-5-oxo-6-(1-methylpropyl)-6-(N-quinolin-2-ylmethoxycarbonylamino)hexyl)benzamide], the IC50 was 1.21 nM.
Still for that read-out and setting: in the case of `CC(C)(C)NC(=O)c1ccccc1C[C@@H](O)[C@H](Cc1ccccc1)NC(=O)[C@H](CC(N)=O)NC(=O)c1cc2ccccc2[nH]1` [Example 21, [1S-(1R*, 4R*. 5S*)]-N-(1-(2-amino-2-oxoethyl)-2-oxo-3-aza-4-phenylmethyl-5-hydroxy-6-(2-(1-t-butylamino-1-oxomethyl)phenyl)hexyl)-2-indolyl carboxamine] it was 4.18 nM; in that of `CC(C)(C)NC(=O)c1ccccc1C[C@@H](O)[C@H](Cc1ccccc1)NC(=O)[C@H](CC(N)=O)NC(=O)C1Cc2ccccc2CN1` (single isomer, unassigned) [Example 37, [1S-(1R*, 4R*, 5S*)]-N-(1-(2-amino-2-oxoethyl)-2-oxo-3-aza-4-phenylmethyl-5-hydroxy-6-(2-(1-t-butylamino-1-oxomethyl)phenyl)hexyl)-3-(1,2,3,4-tetrahydroisoquinolinyl) carboxamide], 34.2 nM.
For `CC(C)(C)NC(=O)c1ccccc1C[C@@H](O)[C@H](Cc1ccccc1)NC(=O)[C@H](CC(N)=O)NC(=O)OCc1ccccc1` (relative stereo) [Example 11, [2R-(2R*, 3S*, 6S*)]-N-t-butyl-2-(2-hydroxy-3-phenylmethyl-4-aza-5-oxo-6-(2-amino-2-oxomethyl)-6-phenylmethoxycarbonyl)hexyl)benzamide], for the setting “purified HIV-1 protease, MES-ALB buffer pH 5.5, 1 h preincubation, 16 h with substrate, room temperature, IC50 values for Examples 2-70 are standardized relative to Ex 1”, the “Fluorescence Assay IC50” value was found to be 0.01 µg/mL.
For the compound `CC(C)(C)NC(=O)c1oc2ccccc2c1C[C@@H](O)[C@H](Cc1ccccc1)NC(=O)[C@H](CC(N)=O)NC(=O)c1ccc2ccccc2n1` [Example 42, [1S-(1R*, 4R*, 5S*)]-N-(1-(2-amino-2-oxoethyl)-2-oxo-3-aza-4-phenylmethyl-5-hydroxy-6-(2-(1-t-butylamino-1-oxomethyl)benzofur-3-yl)hexyl)-2-quinolinyl carboxamide], the IC50 is 523 nM.
`CC(C)(C)NC(=O)c1ccccc1C[C@@H](O)[C@H](Cc1ccccc1)NC(=O)[C@H](CC(=O)O)NC(=O)c1ccc2ccccc2n1` [Example 43, [1S-(1R*, 4R*, 5S*)]-N-(1-(2-hydroxy-2-oxoethyl)-2-oxo-3-aza-4-phenylmethyl-5-hydroxy-6-(2-(1-t-butylamino-1-oxomethyl)phenyl)hexyl)-2-quinolinyl carboxamide]: the IC50 was 2.13 nM.
`Cc1ccc(C[C@@H](O)[C@H](Cc2ccccc2)NC(=O)[C@H](Cc2c[nH]cn2)NC(=O)c2ccc3ccccc3n2)c(C(=O)NC(C)(C)C)c1` [Example 67, [1S-(1R*, 4R*, 5S*)]-N-(1-(4-imidazolylmethyl)-2-oxo-3-aza-4-phenylmethyl-5-hydroxy-6-(2-(1-t-butylamino-1-oxomethyl)-4-methylphenyl)-4-hexyl)-2-quinolinyl carboxamide]: the IC50 was 7.73 nM.
In the case of `CC(C)(C)NC(=O)c1ccccc1C[C@@H](O)[C@H](Cc1ccccc1)NC(=O)[C@H](CC(=O)Nc1ccncc1)NC(=O)c1ccc2ccccc2n1` [Example 48, [1S-(1R*, 4R*, 5S*)]-N-(1-(2-(N-pyrid-4-yl)amino)-2-oxoethyl)-2-oxo-3-aza-4-phenylmethyl-5-hydroxy-6-(2-(1-t-butylamino-1-oxomethyl)phenyl)hexyl)-2-quinolinyl carboxamide], the IC50 was 1.16 nM.
On the same count and under the same terms, in the case of `Cc1cc(C(=O)N[C@@H](CC(N)=O)C(=O)N[C@@H](Cc2ccccc2)[C@H](O)Cc2ccccc2C(=O)NC(C)(C)C)nc2ccccc12` [Example 26, [1S-(1R*, 4R*, 5S*)]-N-(1-(2-amino-2-oxoethyl)-2-oxo-3-aza-4-phenylmethyl-5-hydroxy-6-(2-(1-t-butylamino-1-oxomethyl)phenyl)hexyl)-4-methylquinolin-2-yl carboxamide] it was 1.12 nM; in that of `Cc1cccc2ccc(C(=O)N[C@@H](CC(N)=O)C(=O)N[C@@H](Cc3ccccc3)[C@H](O)Cc3ccccc3C(=O)NC(C)(C)C)nc12` [Example 24, [1S-(1R*, 4R*, 5S*)]-N-(1-(2-amino-2-oxoethyl)-2-oxo-3-aza-4-phenylmethyl-5-hydroxy-6-(2-(1-t-butylamino-1-oxomethyl)phenyl)hexyl)-8-methylquinolin-2-yl carboxamide], 0.481 nM; in that of `CC(C)(C)NC(=O)c1ccccc1C[C@@H](O)[C@H](Cc1ccccc1)NC(=O)[C@H](CC(N)=O)NC(=O)COc1ccc2ccccc2n1` [Example 32, [1S-(1R*, 4R*, 5S*)]-N-(1-(2-amino-2-oxoethyl)-2-oxo-3-aza-4-phenylmethyl-5-hydroxy-6-(2-(1-t-butylamino-1-oxomethyl)phenyl)hexyl)-2-quinolinoxy acetamide], 3.75 nM.
As to `CC(C)(C)NC(=O)c1ccccc1C[C@@H](O)[C@H](Cc1ccccc1)NC(=O)[C@H](CCC(N)=O)NC(=O)c1ccc2ccccc2n1` [Example 54, [1S-(1R*, 4R*, 5S*)]-N-(1-(3-amino-3-oxopropyl)-2-oxo-3-aza-4-phenylmethyl-5-hydroxy-6-(2-(1-t-butylamino-1-oxomethyl)phenyl)hexyl)-2-quinolinyl carboxamide], the IC50 is 78.6 nM.
Still for that read-out and setting: next, `CC1(NC(=O)c2ccccc2C[C@@H](O)[C@H](Cc2ccccc2)NC(=O)[C@H](CC(N)=O)NC(=O)c2ccc3ccccc3n2)CCCC1` [Example 69, [1S-(1R*, 4R*, 5S*) ]-N-(1-(2-amino-2-oxoethyl) -2-oxo-3-aza-4-phenylmethyl-5-hydroxy-6-(2-(1-(1-methylcyclopent-1-yl)amino-1-oxomethyl)phenyl)hexyl)-2-quinolinyl carboxamide]: 1.2 nM.
Still for that read-out and setting: in the case of `CC(C)(C)NC(=O)c1occc1C[C@@H](O)[C@H](Cc1ccccc1)NC(=O)[C@H](CC(N)=O)NC(=O)c1ccc2ccccc2n1` [Example 40, [1S-(1R*, 4R*, 5S*)]-N-(1-(2-amino-2-oxoethyl)-2-oxo-3-aza-4-phenylmethyl-5-hydroxy-6-(2-(1-t-butylamino-1-oxomethyl)fur-3-yl)hexyl)-2-quinolinyl carboxamide] it was 46.7 nM; in that of `CC(C)(C)NC(=O)c1ccccc1C[C@@H](O)[C@H](Cc1ccccc1)NC(=O)[C@H](CC(N)=O)NC(=O)Cc1ccc2ccccc2c1` [Example 31, [1S-(1R*, 4R*, 5S*)]-N-(1-(2-amino-2-oxoethyl)-2-oxo-3-aza-4-phenylmethyl-5-hydroxy-6-(2-(1-t-butylamino-1-oxomethyl)phenyl)hexyl)-2-naphthyl acetamide], 11.4 nM; in that of `CC(C)(C)NC(=O)c1ccccc1C[C@@H](O)[C@H](Cc1ccccc1)NC(=O)[C@H](CC(N)=O)NC(=O)NCc1cccc2ccccc12` [Example 58, [2R-(2R*, 3S*, 6S*)]-N-t-butyl-2-(2-hydroxy-3-phenylmethyl-4-aza-5-oxo-6-(2-amino-2-oxoethyl)-7-aza-8-oxo-8-(N-naphth-1-ylmethylamino)octyl)benzamide], 2.82 nM.
As to `CC(C)(C)NC(=O)c1ccccc1C[C@@H](O)[C@H](Cc1ccccc1)NC(=O)[C@H](CC(N)=O)NC(=O)c1ccc2cc(Cl)ccc2n1` [Example 55, [1S-(1R*, 4R*, 5S*)]-N-(1-(2-amino-2-oxoethyl)-2-oxo-3-aza-4-phenylmethyl-5-hydroxy-6-(2-(1-t-butylamino-1-oxomethyl)phenyl)hexyl)-6-chloroquinolin-2-yl carboxamide], the IC50 is 1.26 nM.

Source of the values: patent publication US5719287A, “Intermediates for inhibitors of HIV protease and method of preparation thereof” (Eli Lilly and Company, priority 1995, dated 1998).
